Experiments:
Test in all cases: Differential Scanning Fluorimetry (DSF) Tm shift
Type in all cases: binding
PAK4 Catalytic Domain = molecular target: T1, PAK4 Catalytic Domain (Homo sapiens, UniProt O96013); conditions: 2 µM protein, 10 µM inhibitor, average of 3 experiments, each in duplicate
T1 construct: For all of them, we expressed and purified the catalytic domain separately; His-tag; made in house; host or cells: Escherichia coli

PAK7 Catalytic Domain = molecular target: T2, PAK7 Catalytic Domain (Homo sapiens, UniProt Q9P286); conditions: 2 µM protein, 10 µM inhibitor, average of 3 experiments, each in duplicate
T2 construct: For all of them, we expressed and purified the catalytic domain separately; His-tag; made in house; host or cells: Escherichia coli
T2 sequence (Q9P286 449-700 limits assumed): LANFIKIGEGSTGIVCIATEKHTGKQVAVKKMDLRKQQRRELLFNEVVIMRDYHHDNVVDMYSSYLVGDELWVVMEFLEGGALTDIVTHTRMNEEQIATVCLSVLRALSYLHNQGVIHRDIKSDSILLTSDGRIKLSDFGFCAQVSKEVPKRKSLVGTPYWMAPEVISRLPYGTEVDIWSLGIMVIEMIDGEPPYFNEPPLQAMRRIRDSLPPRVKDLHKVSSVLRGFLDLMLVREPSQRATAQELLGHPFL

DMPK Catalytic Domain = molecular target: T3, DMPK Catalytic Domain (Homo sapiens, UniProt Q09013); conditions: 2 µM protein, 10 µM inhibitor, average of 3 experiments, each in duplicate
T3 construct: For all of them, we expressed and purified the catalytic domain separately; His-tag; made in house; host or cells: Escherichia coli
T3 sequence (Q09013 71-339 limits assumed): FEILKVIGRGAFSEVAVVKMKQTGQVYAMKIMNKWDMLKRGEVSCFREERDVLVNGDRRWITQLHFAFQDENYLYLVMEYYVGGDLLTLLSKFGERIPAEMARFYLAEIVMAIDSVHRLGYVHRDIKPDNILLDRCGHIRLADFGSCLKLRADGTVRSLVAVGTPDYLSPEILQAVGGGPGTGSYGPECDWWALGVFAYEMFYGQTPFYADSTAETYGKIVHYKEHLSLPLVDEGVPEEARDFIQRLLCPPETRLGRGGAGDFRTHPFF

[1] = molecular target: T4, STK3 Catalytic domain+SARAH (Homo sapiens, UniProt Q13188); conditions: 2 µM protein, 10 µM inhibitor, average of 3 experiments, each in duplicate
T4 construct: for 8, we also made a longer version containing one or more additional domains; His-tag; made in house; host or cells: Escherichia coli
T4 sequence (Q13188 1-491): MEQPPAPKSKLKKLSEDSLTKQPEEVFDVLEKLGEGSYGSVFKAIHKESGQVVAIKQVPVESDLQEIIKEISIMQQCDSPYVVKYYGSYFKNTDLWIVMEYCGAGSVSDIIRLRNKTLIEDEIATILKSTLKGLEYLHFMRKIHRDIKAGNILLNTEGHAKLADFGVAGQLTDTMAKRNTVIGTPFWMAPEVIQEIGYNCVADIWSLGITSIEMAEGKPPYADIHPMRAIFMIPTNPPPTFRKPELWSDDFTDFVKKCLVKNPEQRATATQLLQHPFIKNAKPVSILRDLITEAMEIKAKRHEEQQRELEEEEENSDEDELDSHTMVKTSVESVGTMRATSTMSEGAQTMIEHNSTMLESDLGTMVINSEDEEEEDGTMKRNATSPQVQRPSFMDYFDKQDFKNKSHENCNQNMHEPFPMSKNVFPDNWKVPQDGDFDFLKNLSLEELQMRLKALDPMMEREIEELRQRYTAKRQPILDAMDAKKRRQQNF

AKT3 Catalytic Domain = molecular target: T5, AKT3 Catalytic Domain (Homo sapiens, UniProt Q9Y243); conditions: 2 µM protein, 10 µM inhibitor, average of 3 experiments, each in duplicate
T5 construct: AKT3 (Q9Y243); CD; His-tag; made in house; host or cells: Escherichia coli
T5 sequence (Q9Y243 122-479): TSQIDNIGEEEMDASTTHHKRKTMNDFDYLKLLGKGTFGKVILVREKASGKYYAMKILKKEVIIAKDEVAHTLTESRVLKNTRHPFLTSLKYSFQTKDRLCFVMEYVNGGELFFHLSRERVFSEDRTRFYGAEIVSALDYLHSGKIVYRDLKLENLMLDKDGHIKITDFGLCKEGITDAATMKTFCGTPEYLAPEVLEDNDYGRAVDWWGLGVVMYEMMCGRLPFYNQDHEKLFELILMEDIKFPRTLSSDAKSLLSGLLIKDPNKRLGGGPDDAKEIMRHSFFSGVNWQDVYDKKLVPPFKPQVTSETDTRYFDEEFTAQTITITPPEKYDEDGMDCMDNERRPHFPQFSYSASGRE

FES Catalytic Domain = molecular target: T6, FES Catalytic Domain (Homo sapiens, UniProt P07332); conditions: 2 µM protein, 10 µM inhibitor, average of 3 experiments, each in duplicate
T6 construct: For all of them, we expressed and purified the catalytic domain separately; His-tag; made in house; host or cells: Escherichia coli
T6 sequence (P07332 561-822 limits assumed): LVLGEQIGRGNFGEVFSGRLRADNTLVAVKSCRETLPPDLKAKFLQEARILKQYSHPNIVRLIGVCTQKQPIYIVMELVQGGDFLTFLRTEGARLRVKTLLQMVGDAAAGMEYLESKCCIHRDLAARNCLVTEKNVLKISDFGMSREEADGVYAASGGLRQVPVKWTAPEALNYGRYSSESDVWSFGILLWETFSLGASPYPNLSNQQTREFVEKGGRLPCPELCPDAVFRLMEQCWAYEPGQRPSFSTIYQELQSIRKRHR

FES Catalytic Domain+SH2 = molecular target: T7, FES Catalytic Domain+SH2 (Homo sapiens, UniProt P07332); conditions: 2 µM protein, 10 µM inhibitor, average of 3 experiments, each in duplicate
T7 construct: for 8, we also made a longer version containing one or more additional domains; His-tag; made in house; host or cells: Escherichia coli
T7 sequence (P07332 448-822 limits assumed): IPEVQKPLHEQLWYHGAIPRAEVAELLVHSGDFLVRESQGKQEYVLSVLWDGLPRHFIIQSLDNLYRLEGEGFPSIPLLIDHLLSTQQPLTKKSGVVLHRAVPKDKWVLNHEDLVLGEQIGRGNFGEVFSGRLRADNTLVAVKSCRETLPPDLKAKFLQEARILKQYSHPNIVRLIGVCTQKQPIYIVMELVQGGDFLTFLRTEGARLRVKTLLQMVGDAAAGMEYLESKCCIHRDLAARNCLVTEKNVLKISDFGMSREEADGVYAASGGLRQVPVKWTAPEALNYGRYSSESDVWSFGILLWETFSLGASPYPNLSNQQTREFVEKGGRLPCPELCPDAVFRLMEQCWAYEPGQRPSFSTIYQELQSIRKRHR

[2] = molecular target: T8, PAK4 Catalytic Domain+PBD (Homo sapiens, UniProt O96013); conditions: 2 µM protein, 10 µM inhibitor, average of 3 experiments, each in duplicate
T8 construct: for 8, we also made a longer version containing one or more additional domains; His-tag; made in house; host or cells: Escherichia coli
T8 sequence (O96013 whole entry, the tested form may be a part): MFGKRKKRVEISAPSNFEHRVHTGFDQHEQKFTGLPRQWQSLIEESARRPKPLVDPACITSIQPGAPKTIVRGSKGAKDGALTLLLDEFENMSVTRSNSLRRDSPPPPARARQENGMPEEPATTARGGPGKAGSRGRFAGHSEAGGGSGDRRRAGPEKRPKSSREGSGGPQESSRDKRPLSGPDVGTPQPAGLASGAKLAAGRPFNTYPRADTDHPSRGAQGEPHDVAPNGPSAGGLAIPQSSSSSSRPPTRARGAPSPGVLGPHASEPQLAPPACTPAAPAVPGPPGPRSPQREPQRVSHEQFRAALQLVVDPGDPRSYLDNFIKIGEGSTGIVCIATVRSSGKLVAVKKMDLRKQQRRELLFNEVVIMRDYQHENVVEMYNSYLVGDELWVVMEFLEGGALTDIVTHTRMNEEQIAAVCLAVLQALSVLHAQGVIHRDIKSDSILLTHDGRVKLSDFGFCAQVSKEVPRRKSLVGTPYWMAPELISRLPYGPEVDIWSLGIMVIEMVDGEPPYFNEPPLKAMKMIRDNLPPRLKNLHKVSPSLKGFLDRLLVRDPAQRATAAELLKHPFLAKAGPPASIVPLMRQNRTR

CHK2 Catalytic Domain = molecular target: T9, CHK2 Catalytic Domain (Homo sapiens, UniProt O96017); conditions: 2 µM protein, 10 µM inhibitor, average of 3 experiments, each in duplicate
T9 construct: For all of them, we expressed and purified the catalytic domain separately; His-tag; made in house; host or cells: Escherichia coli
T9 sequence (O96017 220-486 limits assumed): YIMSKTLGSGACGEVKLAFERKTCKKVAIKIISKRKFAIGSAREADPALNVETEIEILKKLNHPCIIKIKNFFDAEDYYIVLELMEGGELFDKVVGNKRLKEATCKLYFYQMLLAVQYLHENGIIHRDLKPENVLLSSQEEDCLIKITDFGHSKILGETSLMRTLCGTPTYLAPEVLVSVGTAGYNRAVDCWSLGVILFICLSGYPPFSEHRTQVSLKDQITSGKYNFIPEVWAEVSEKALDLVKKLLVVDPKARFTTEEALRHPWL

CDK2 + Cyclin A = molecular target: T10, CDK2 + Cyclin A (Homo sapiens, UniProt P24941); conditions: CDK2 + Cyclin A; 2 µM protein, 10 µM inhibitor; average of 3 experiments, each in duplicate
T10 construct: CDK2 (P24941); 1–299; His-tag; made in house; host or cells: Escherichia coli

FAK2 Catalytic Domain = molecular target: T11, FAK2 Catalytic Domain (Homo sapiens, UniProt Q14289); conditions: 2 µM protein, 10 µM inhibitor, average of 3 experiments, each in duplicate
T11 construct: For all of them, we expressed and purified the catalytic domain separately; His-tag; made in house; host or cells: Escherichia coli
T11 sequence (Q14289 425-683 limits assumed): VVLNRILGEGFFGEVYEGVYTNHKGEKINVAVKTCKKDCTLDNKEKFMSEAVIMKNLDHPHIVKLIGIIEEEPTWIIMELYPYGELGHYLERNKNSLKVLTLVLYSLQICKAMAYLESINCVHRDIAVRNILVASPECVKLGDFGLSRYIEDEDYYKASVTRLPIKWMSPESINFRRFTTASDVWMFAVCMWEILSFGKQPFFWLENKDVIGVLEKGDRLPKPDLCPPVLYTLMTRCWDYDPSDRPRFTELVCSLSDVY

STK3 Catalytic Domain = molecular target: T12, STK3 Catalytic Domain (Homo sapiens, UniProt Q13188); conditions: 2 µM protein, 10 µM inhibitor, average of 3 experiments, each in duplicate
T12 construct: For all of them, we expressed and purified the catalytic domain separately; His-tag; made in house; host or cells: Escherichia coli
T12 sequence (Q13188 27-278 limits assumed): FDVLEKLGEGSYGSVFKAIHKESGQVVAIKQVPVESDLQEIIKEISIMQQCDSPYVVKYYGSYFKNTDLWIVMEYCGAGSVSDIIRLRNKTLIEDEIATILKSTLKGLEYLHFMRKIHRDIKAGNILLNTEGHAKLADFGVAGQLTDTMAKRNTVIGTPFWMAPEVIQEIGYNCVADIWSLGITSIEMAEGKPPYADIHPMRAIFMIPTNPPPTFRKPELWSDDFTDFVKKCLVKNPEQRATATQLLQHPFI

[3] = molecular target: SRC Catalytic Domain+SH2+SH3 (Homo sapiens, UniProt P12931); conditions: 2 µM protein, 10 µM inhibitor, average of 3 experiments, each in duplicate
Sequence of SRC Catalytic Domain+SH2+SH3 (P12931 84-523 limits assumed): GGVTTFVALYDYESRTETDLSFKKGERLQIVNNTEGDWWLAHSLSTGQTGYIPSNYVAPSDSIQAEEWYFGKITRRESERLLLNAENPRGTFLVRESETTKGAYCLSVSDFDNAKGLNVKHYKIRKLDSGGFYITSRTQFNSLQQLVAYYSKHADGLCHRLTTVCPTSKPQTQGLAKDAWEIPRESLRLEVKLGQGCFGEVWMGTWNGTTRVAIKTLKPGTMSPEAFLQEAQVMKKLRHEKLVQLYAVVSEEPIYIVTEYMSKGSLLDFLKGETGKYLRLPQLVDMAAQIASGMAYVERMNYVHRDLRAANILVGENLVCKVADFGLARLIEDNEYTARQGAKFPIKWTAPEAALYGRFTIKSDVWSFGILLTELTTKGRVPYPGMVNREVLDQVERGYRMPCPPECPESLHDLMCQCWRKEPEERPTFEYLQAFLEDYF

T1 sequence (O96013 321-572 limits assumed): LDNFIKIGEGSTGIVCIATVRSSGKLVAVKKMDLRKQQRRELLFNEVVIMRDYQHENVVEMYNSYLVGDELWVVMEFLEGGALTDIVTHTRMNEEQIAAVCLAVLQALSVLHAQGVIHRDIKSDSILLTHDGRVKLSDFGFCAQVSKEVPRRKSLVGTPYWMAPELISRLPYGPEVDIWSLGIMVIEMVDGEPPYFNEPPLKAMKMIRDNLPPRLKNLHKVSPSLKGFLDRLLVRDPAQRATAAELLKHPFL

CC(=O)O/N=C1/C(=C2/C(=O)Nc3cc(Br)ccc32)Nc2ccccc21 [GSK-3 Inhibitor X]
Melting temperature (Tm) shift (PAK4 Catalytic Domain): 0.6 degrees Celcius | Melting temperature (Tm) shift (PAK7 Catalytic Domain): 0.1 degrees Celcius | Melting temperature (Tm) shift (DMPK Catalytic Domain): 0.5 degrees Celcius | Melting temperature (Tm) shift [1]: 0.5 degrees Celcius | Melting temperature (Tm) shift (AKT3 Catalytic Domain): 0.1 degrees Celcius | Melting temperature (Tm) shift (FES Catalytic Domain): 0.4 degrees Celcius | Melting temperature (Tm) shift (FES Catalytic Domain+SH2): 0.0 degrees Celcius | Melting temperature (Tm) shift [2]: 1.0 degrees Celcius

COc1ccc2c(c1)c1c3c(c4c5ccccc5n(C)c4c1n2CC(O)CN(C)C)C(=O)NC3=O.Cl (stereo not shown) [Gö 7874, Hydrochloride]
Melting temperature (Tm) shift (CHK2 Catalytic Domain): 1.1 degrees Celcius | Melting temperature (Tm) shift (CDK2 + Cyclin A): 0.2 degrees Celcius | Melting temperature (Tm) shift (FAK2 Catalytic Domain): 0.7 degrees Celcius | Melting temperature (Tm) shift (PAK7 Catalytic Domain): 0.1 degrees Celcius | Melting temperature (Tm) shift (DMPK Catalytic Domain): 0.2 degrees Celcius | Melting temperature (Tm) shift (STK3 Catalytic Domain): 1.4 degrees Celcius | Melting temperature (Tm) shift [1]: 2.2 degrees Celcius | Melting temperature (Tm) shift (AKT3 Catalytic Domain): 0.2 degrees Celcius | Melting temperature (Tm) shift (FES Catalytic Domain): 0.3 degrees Celcius | Melting temperature (Tm) shift (FES Catalytic Domain+SH2): 0.0 degrees Celcius | Melting temperature (Tm) shift [2]: 0.1 degrees Celcius

O=C1Nc2ccc(I)cc2/C1=C1/Nc2ccccc2/C1=N\O [Indirubin-3ʹ′-monoxime, 5-Iodo-, Indirubin-3′ -monoxime, 5-Iodo-]
Melting temperature (Tm) shift (PAK4 Catalytic Domain): 0.3 degrees Celcius | Melting temperature (Tm) shift (STK3 Catalytic Domain): 1.2 degrees Celcius | Melting temperature (Tm) shift [1]: 5.6 degrees Celcius | Melting temperature (Tm) shift [2]: 2.3 degrees Celcius

O=C1C(Cl)=C(N2C(=O)CCC2=O)C(=O)c2ccccc21 [MEK Inhibitor II]
Melting temperature (Tm) shift (PAK4 Catalytic Domain): 0.0 degrees Celcius | Melting temperature (Tm) shift (CHK2 Catalytic Domain): 0.0 degrees Celcius | Melting temperature (Tm) shift (CDK2 + Cyclin A): 0.1 degrees Celcius | Melting temperature (Tm) shift [3]: 0.0 degrees Celcius | Melting temperature (Tm) shift (PAK7 Catalytic Domain): 0.0 degrees Celcius | Melting temperature (Tm) shift [1]: 0.1 degrees Celcius | Melting temperature (Tm) shift (AKT3 Catalytic Domain): 0.3 degrees Celcius | Melting temperature (Tm) shift (FES Catalytic Domain): 0.0 degrees Celcius | Melting temperature (Tm) shift (FES Catalytic Domain+SH2): 0.0 degrees Celcius

O.O=C1NCCc2[nH]c(-c3ccnc(-c4cnc5ccccc5c4)c3)cc21 [MK-2 Inhibitor III]
Melting temperature (Tm) shift (PAK4 Catalytic Domain): 0.0 degrees Celcius | Melting temperature (Tm) shift (CHK2 Catalytic Domain): 1.2 degrees Celcius | Melting temperature (Tm) shift (CDK2 + Cyclin A): 0.1 degrees Celcius | Melting temperature (Tm) shift (FAK2 Catalytic Domain): 0.1 degrees Celcius | Melting temperature (Tm) shift [3]: 0.1 degrees Celcius | Melting temperature (Tm) shift (PAK7 Catalytic Domain): 0.0 degrees Celcius | Melting temperature (Tm) shift (DMPK Catalytic Domain): 0.3 degrees Celcius | Melting temperature (Tm) shift (STK3 Catalytic Domain): 0.0 degrees Celcius | Melting temperature (Tm) shift [1]: 0.4 degrees Celcius | Melting temperature (Tm) shift (AKT3 Catalytic Domain): 0.0 degrees Celcius | Melting temperature (Tm) shift [2]: 0.1 degrees Celcius

O=C1NC(=O)/C(=C/c2ccc3nccnc3c2)S1 [PI 3-Kg Inhibitor]
Melting temperature (Tm) shift (PAK4 Catalytic Domain): 0.1 degrees Celcius | Melting temperature (Tm) shift (CHK2 Catalytic Domain): 0.4 degrees Celcius | Melting temperature (Tm) shift (CDK2 + Cyclin A): 0.2 degrees Celcius | Melting temperature (Tm) shift [3]: 0.0 degrees Celcius | Melting temperature (Tm) shift (PAK7 Catalytic Domain): 0.0 degrees Celcius | Melting temperature (Tm) shift (DMPK Catalytic Domain): 0.8 degrees Celcius | Melting temperature (Tm) shift (STK3 Catalytic Domain): 0.1 degrees Celcius | Melting temperature (Tm) shift [1]: 0.1 degrees Celcius | Melting temperature (Tm) shift (AKT3 Catalytic Domain): 0.0 degrees Celcius | Melting temperature (Tm) shift (FES Catalytic Domain): 0.1 degrees Celcius | Melting temperature (Tm) shift (FES Catalytic Domain+SH2): 0.1 degrees Celcius

Akt Inhibitor VIII, Isozyme-Selective, Akti-1/2
Melting temperature (Tm) shift (CHK2 Catalytic Domain): 0.4 degrees Celcius | Melting temperature (Tm) shift (CDK2 + Cyclin A): 0.2 degrees Celcius | Melting temperature (Tm) shift (FAK2 Catalytic Domain): 0.1 degrees Celcius | Melting temperature (Tm) shift (PAK7 Catalytic Domain): 0.0 degrees Celcius
